Experimental data as given in paper PMC4729137, “Functional analysis of androgen receptor mutations that confer anti-androgen resistance identified in circulating cell-free DNA from prostate cancer patients” (Genome Biology, 2016).
Substitutions are numbered along the chain they refer to.

How the values were obtained:
Assay in all cases: cell-based
D880E-AR = molecular target: T1, D880E-AR (Homo sapiens, UniProt P10275, D880E)
T1 sequence (P10275 1-920 D880E): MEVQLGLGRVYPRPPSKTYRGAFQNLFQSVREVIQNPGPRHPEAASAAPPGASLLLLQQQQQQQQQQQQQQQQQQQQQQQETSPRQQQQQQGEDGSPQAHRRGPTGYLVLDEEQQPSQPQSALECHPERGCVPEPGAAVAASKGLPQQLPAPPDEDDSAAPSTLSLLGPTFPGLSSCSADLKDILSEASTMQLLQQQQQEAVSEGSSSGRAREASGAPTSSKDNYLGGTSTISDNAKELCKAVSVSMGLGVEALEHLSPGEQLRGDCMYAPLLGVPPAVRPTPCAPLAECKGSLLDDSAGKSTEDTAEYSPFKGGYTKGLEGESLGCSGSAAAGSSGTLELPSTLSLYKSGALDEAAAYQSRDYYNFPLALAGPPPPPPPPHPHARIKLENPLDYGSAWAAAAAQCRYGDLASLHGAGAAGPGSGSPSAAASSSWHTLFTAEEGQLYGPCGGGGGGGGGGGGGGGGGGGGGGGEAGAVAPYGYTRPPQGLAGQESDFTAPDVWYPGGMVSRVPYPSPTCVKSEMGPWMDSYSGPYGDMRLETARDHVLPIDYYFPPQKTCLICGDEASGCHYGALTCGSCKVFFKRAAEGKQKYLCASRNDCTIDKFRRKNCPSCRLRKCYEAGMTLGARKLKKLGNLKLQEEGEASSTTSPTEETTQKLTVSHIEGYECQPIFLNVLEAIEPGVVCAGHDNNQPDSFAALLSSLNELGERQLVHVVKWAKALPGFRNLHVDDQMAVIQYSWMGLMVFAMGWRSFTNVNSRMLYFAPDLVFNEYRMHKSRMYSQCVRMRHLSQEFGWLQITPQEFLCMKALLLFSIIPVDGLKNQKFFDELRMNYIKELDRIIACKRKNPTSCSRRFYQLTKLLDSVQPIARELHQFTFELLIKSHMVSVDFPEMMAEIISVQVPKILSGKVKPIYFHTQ

L882I-AR = molecular target: T2, L882I-AR (Homo sapiens, UniProt P10275, L882I)
T2 sequence (P10275 1-920 L882I): T1 sequence (P10275 1-920 D880E) with E880D, L882I

WT-AR = molecular target: T3, WT-AR (Homo sapiens, UniProt P10275)
T3 sequence (P10275 1-920): T1 sequence (P10275 1-920 D880E) with E880D

Measured: EC50

C[C@]12CCC(=O)C=C1CC[C@@H]1[C@@H]2[C@@H](O)C[C@@]2(C)[C@H]1CC[C@]2(O)C(=O)CO [hydrocortisone]
> 500 nM: all assays above
